Data on 15 compounds can be found in article PMC10279527, “Structural basis of metabolite transport by the chloroplast outer envelope channel OEP21” (Nature Structural & Molecular Biology, 2023).

“And” between values parts separate entries of the source, which are not always exact repeats. Identical values can stand only once. Like-named read-outs stand apart in the source and are kept apart here.

Assay [1] has as its target T1, OEP21 (Pisum sativum, UniProt Q9SM57). Kind of assay: CD-detected thermal melting of OEP21 in presence of metabolites. Type of assay: binding, garden pea. Conditions: for Melting point: ED Fig. 4a, OEP21 with 0.5 mM metabolite, CD at 215 nm, Apo 58.5; for raw CD / rel CD: 500 uM. On the set-up: made in house.
The target of assay [2] is T1, OEP21. Description: Isothermal titration calorimetry (ITC) of OEP21 with metabolites. Type of assay: binding, garden pea. Further details: made in house. The following applies: for binding affinity for OEP21 (in words): ITC or FP; for fold increase in Kd: individual determination KD1; for fold increase in Kd / fold increase in Kd, mean values: relative to ATP pH7. In general terms: ITC needs no label: the signal is the heat of the interaction.

The target of assay [3] is T2, OEP21 wt (Pisum sativum, UniProt Q9SM57).
T2 construct: made in house
Kind of assay: SEC metabolite translocation assay with OEP21 WT proteoliposomes.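 As to all read-outs here: control is liposomes reconstituted without protein, prepared alongside. Molecule content inside liposomes measured after Triton X-100 disruption. PD10 SEC runs done with or without ATP and/or MgCl2.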 Type of assay: biochemical, garden pea. The following applies: for passage through the OEP21 channel (in words): proteoliposomes, SEC, deadtime ~4 min; for Relative content (% of mean Control): Fig. 4f, WT proteoliposomes, molecules of increasing molecular weight.

The target of assay [4] is T1, OEP21. Description: Trypsin cleavage of recombinant OEP21 in liposomes. Further details: made in house; species or system garden pea. The following applies: 10 µM OEP21 in liposomes; 5 mM metabolite. The procedure: Sample aliquots were quenched by addition of 1 mM PMSF at the indicated time points and were analyzed by SDS–PAGE.
The target in assay [5] is T1, OEP21. Kind of assay: Amide hydrogen exchange NMR (CLEANEX) of OEP21 L5. Conditions: 2 mM ATP or 5 mM GAP; 303 K, pH 6.0. On the set-up: made in house; species or system garden pea.
For assay [6], the system named is OEP21 variants (single point mutations, ΔL5). Kind of assay: Fluorescence polarization binding of MANT-ATP to OEP21 variants. The following applies: FP with MANT-ATP, Fig. 3e; 14 point variants and ΔL5. Further details: species or system garden pea. (In general: Fluorescence polarisation rises when a labelled molecule tumbles more slowly, as on binding a larger partner.)

The target of assay [7] is T2, OEP21 wt. Description: Fluorescence polarization (FP) binding of MANT-ATP (or MANT-GMPPNP) to OEP21-WT, also at varied NaCl and MgCl2. On the set-up: species or system garden pea. The following applies: FP. The procedure: (§1) FP assays were performed on a spectrofluorometer FP-8300 (Jasco) equipped with a water bath cooling system MCM-100 (Jasco). […] A buffer containing no EDTA was used when MgCl2 was present. […] KD values were derived by fitting the data to a one-site binding model. […] All FP experiments were performed as triplicates.

Assay [8] can be described thus: ITC of ATP, GAP or phosphate with magnesium. Type of assay: binding. The following applies: 10 mM HEPES pH7.0, 20 mM NaCl, read-out: KD for Mg^2+. The procedure:
ITC experiments were performed with a MicroCal PEAQ-ITC instrument (Malvern Panalytical) at 25 °C in 10 mM HEPES pH 7.0, 20 mM NaCl, 0.5 mM EDTA, 1 mM DTT, 50 mM LDAO. […] Curve fitting and data analysis were done with the Malvern PEAQ-ITC software.
(a) (left) 2D-[^15N,^1H]-TROSY NMR spectra of 400 µM ^2H,^15N-labeled OmpX in LDAO micelles in 20 mM sodium phosphate, pH6.0, 50 mM NaCl, 0.5 mM EDTA and the indicated concentrations of D-GAP at 30 °C and 1.2 GHz magnetic field. (right) 2D-projections along the ^1H dimension of the 2D-spectra shown on (left). […] (right) Relative NMR peak intensities derived from the data in (left) and (middle). Buffer: 10 mM Na-phosphate pH7.0, 20 mM NaCl, 7% (v/v) D2O. […] (right) 150 mM MgCl2 was titrated into 15 mM potassium phosphate (Pi). Buffer conditions for all experiments were: 10 mM HEPES pH7.0, 20 mM NaCl.

Assay [9] concerns the target T2, OEP21 wt. Kind of assay: FP competition with preformed MANT-ATP/OEP21-WT complex. It is filed as binding, garden pea. Conditions: read-out: IC50 (dissociation of MANT-ATP); OEP21-WT; 1 µM MANT-ATP, 1 µM protein. The protocol:
as §1

In assay [10] the target is T2, OEP21 wt. Kind of assay: NMR titrations (2D-[15N,1H]-TROSY) of OEP21 with metabolites. Type of assay: binding, garden pea.

With `O=C(O)[C@H](O)COP(=O)(O)O` [3PGA], the Melting point at OEP21 [1] is given as 58.78 ｡C.
Consider `Nc1ncnc2c1ncn2[C@@H]1O[C@H](COP(=O)(O)OP(=O)(O)O)[C@@H](O)[C@H]1O` [ADP], for which the “binding affinity for OEP21 (in words)” value on OEP21 [2] (Fig. 3c) is “markedly reduced”. For the same compound, at OEP21 [2], the “fold increase in Kd” value worked out at 10.8 and the “fold increase in Kd, mean values” stood at 10.8. The Melting point on OEP21 [1] is 59.2 ｡C.
As for `Nc1ncnc2c1ncn2[C@@H]1O[C@H](COP(=O)(O)O)[C@@H](O)[C@H]1O` [AMP], the “binding affinity for OEP21 (in words)” value on OEP21 [2] (Fig. 3c) is reported as “no binding could be detected”. Moreover, the “Fold increase in KD” value at OEP21 [2] (Fig. 3c, n.b. = no binding could be detected by ITC) was “n.b”. Further, the “fold increase in Kd, mean values” on OEP21 [2] is on record as 0. Further, the Melting point on OEP21 [1] is given as 59.12 ｡C.
As for `Nc1ncnc2c1ncn2C1OC(COP(=O)(O)OP(=O)(O)OP(=O)(O)O)C(O)C1O` (centres unmarked) [ATP], the “passage through the OEP21 channel (in words)” value on OEP21 wt [3] is listed as “passed through the channel”. For the same compound, the “effect on trypsin digestion of L5 (in words)” value on OEP21 [4] is listed as “slightly protected L5 from proteolytic digestion”. The binding stoichiometry n at OEP21 [2] (ITC, Fig. 3a) is 1.14 ± 0.16. Besides, the “amide hydrogen exchange rates in L5 in the complex (in words)” value on OEP21 [5] was “reduced”. The “deviation of KD of OEP21 variants from the wild-type value” in [6] is no more than 50%. At OEP21 wt [7] (50 mM MgCl2 versus 0), the decrease in affinity is roughly 50 fold. Also, at OEP21 wt [7] (2 M NaCl versus 0), the “drop in binding affinity” value is reported as roughly 120 fold. The dissociation constant Kd in [8] was 0.05 mM and 0.054 mM. Further, the “raw CD” value at OEP21 [1] (21 °C) is recorded as -26.3487; on OEP21 [1] (58 °C), -23.5155; at OEP21 [1] (63 °C), -19.1017; at OEP21 [1] (66 °C) it was -5.813; on OEP21 [1] (69 °C) it was -3.142; at OEP21 [1] (70 °C), -4.096. For the same compound, the “raw CD” value at OEP21 [1] (71 °C) was -2.84; at OEP21 [1] (71.5 °C) it was -3.658; at OEP21 [1] (74 °C), -2.072; on OEP21 [1] (77 °C), -2.742; at OEP21 [1] (79 °C), -1.936; at OEP21 [1] (79.5 °C), -2.866. Besides, the “raw CD” value is listed as -3 on OEP21 [1] (80 °C); -1.776 on OEP21 [1] (82 °C); -1.529 at OEP21 [1] (83.5 °C); -3.442 at OEP21 [1] (84 °C); -3.139 on OEP21 [1] (88.5 °C); -2.644 on OEP21 [1] (95 °C). The “raw CD” value is given as -2.053 at OEP21 [1] (98 °C) and -2.629 at OEP21 [1] (100 °C). The “rel CD” value on OEP21 [1] (66 °C) is 0.1482; on OEP21 [1] (68 °C), 0.08235; at OEP21 [1] (76 °C), 0.01626; on OEP21 [1] (77 °C), 0.01867; at OEP21 [1] (82 °C), -0.02212; on OEP21 [1] (87 °C), -0.01175. The “rel CD” value is recorded as 0.006103 on OEP21 [1] (87.5 °C); 0.001624 on OEP21 [1] (88 °C); -0.0159 at OEP21 [1] (90 °C); -0.01305 at OEP21 [1] (90.5 °C); 0.001685 on OEP21 [1] (92 °C); -0.01165 on OEP21 [1] (93 °C). In addition, at OEP21 [1] (97 °C), the “rel CD” value is listed as -0.003556. Further, the Melting point on OEP21 [1] is 63.08 ｡C.
For `O=S1(=O)OC(c2cc(Br)c(O)c(Br)c2)(c2cc(Br)c(O)c(Br)c2)c2ccccc21` [Bromophenol Blue, reference compound], the “Relative content (% of mean Control)” value was 44.3038 % of mean Control on OEP21 wt [3] (Mean); 45.5696 % of mean Control and 43.6709 % of mean Control (2×) at OEP21 wt [3] (single replicates). The “passage through the OEP21 channel (in words)” value at OEP21 wt [3] was “lower translocation efficiency”.
As for `Nc1ccn([C@@H]2O[C@H](COP(=O)(O)OP(=O)(O)OP(=O)(O)O)[C@@H](O)[C@H]2O)c(=O)n1` [CTP], on OEP21 [2], the “fold increase in Kd” value was 1.35 and the “fold increase in Kd, mean values” was found to be 1.35. Also, on OEP21 [1], the Melting point is 63.71 ｡C.
With `Cc1cc2nc3c(=O)[nH]c(=O)nc-3n(C[C@H](O)[C@H](O)[C@H](O)COP(=O)(O)OP(=O)(O)OC[C@H]3O[C@@H](n4cnc5c(N)ncnc54)[C@H](O)[C@@H]3O)c2cc1C` [FAD], the “Relative content (% of mean Control)” value on OEP21 wt [3] (Mean) is 46.1734 % of mean Control; on OEP21 wt [3] (single replicates), 47.6939 % of mean Control and 45.5112 % of mean Control and 45.315 % of mean Control.
Regarding `Nc1nc2c(ncn2[C@@H]2O[C@H](COP(=O)(O)OP(=O)(O)OP(=O)(O)O)[C@@H](O)[C@H]2O)c(=O)[nH]1` [GTP], at OEP21 [2], the “fold increase in Kd” value turned out to be 0.59 and the “fold increase in Kd, mean values” is 0.59. Also, the Melting point on OEP21 [1] is 66.48 ｡C.
For the compound `NC(=O)C1=CN([C@@H]2O[C@H](COP(=O)(O)OP(=O)(O)OC[C@H]3O[C@@H](n4cnc5c(N)ncnc54)[C@H](O)[C@@H]3O)[C@@H](O)[C@H]2O)C=CC1` [NADH], the “Relative content (% of mean Control)” value on OEP21 wt [3] (Mean) is 33.6575 % of mean Control; on OEP21 wt [3] (single replicates) it was 33.3345 % of mean Control and 33.6928 % of mean Control and 33.9453 % of mean Control. The Melting point on OEP21 [1] is given as 58.83 ｡C.
Take `NC(=O)C1=CN([C@@H]2O[C@H](COP(=O)(O)OP(=O)(O)OC[C@H]3O[C@@H](n4cnc5c(N)ncnc54)[C@H](OP(=O)(O)O)[C@@H]3O)[C@@H](O)[C@H]2O)C=CC1` [NADPH]: the “Relative content (% of mean Control)” value at OEP21 wt [3] (Mean) is 30.937 % of mean Control; at OEP21 wt [3] (single replicates), 31.31 % of mean Control and 32.4982 % of mean Control and 29.0027 % of mean Control. Further, on OEP21 [1], the Melting point is recorded as 60.17 ｡C.
`C=C(OP(=O)(O)O)C(=O)O` [PEP]: the Melting point at OEP21 [1] is 58.37 ｡C.
Take `O=P(O)(O)O` [Phosphate]: the IC50 on OEP21 wt [9] is roughly 10 mM. Further, the “Relative content (% of mean Control)” value is 13.1637 % of mean Control on OEP21 wt [3] (Mean); 11.8165 % of mean Control and 12.9577 % of mean Control and 14.7171 % of mean Control at OEP21 wt [3] (single replicates). The Kd on OEP21 wt [10] (individual determinations KD1-KD12, read-out: Kd) was 8.73 mM and 3.66 mM and 15 mM and 9.02 mM and 8.71 mM and 10.4 mM and 5.02 mM and 3.5 mM and 11 mM and 15.9 mM and 20.7 mM and 4.68 mM; at OEP21 wt [10] (mean, read-out: Kd, mean values), 9.7 mM; in assay [8] (listed as Pi) it was 9 ± 1 mM; in [8] it was roughly 9 mM.
As to `O=c1ccn([C@@H]2O[C@H](COP(=O)(O)OP(=O)(O)OP(=O)(O)O)[C@@H](O)[C@H]2O)c(=O)[nH]1` [UTP], at OEP21 [2], the “fold increase in Kd” value is reported as 2.55 and the “fold increase in Kd, mean values” is on record as 2.55. In addition, the Melting point on OEP21 [1] was 63.58 ｡C.
For Vitamin B12, the “Relative content (% of mean Control)” value on OEP21 wt [3] (Mean) is 99.2057 % of mean Control; at OEP21 wt [3] (single replicates), 105.56 % of mean Control and 96.0286 % of mean Control (2×). The “passage through the OEP21 channel (in words)” value on OEP21 wt [3] is reported as “cannot pass”.
On to “lysozyme: the ~14-kDa protein lysozyme [reference compound]”, for which the “passage through the OEP21 channel (in words)” value with OEP21 wt [3] is “cannot pass”.

What is called Kd is a measure of binding affinity in units of concentration. What is called IC50 is the concentration needed to halve the response being measured.
